In brackets after ≈: the same amount, converted by molar mass.
Columns and labels:
Assay type in all cases: functional
Aspergillus flavus = assay: Antimicrobial activity against Aspergillus flavus after 72 to 96 hr by two-fold serial dilution method
Rhizopus = assay: Antimicrobial activity against Rhizopus sp. after 72 to 96 hr by two-fold serial dilution method
Aspergillus niger = assay: Antimicrobial activity against Aspergillus niger after 72 to 96 hr by two-fold serial dilution method
Candida albicans = assay: Antimicrobial activity against Candida albicans after 72 to 96 hr by two-fold serial dilution method
Pseudomonas aeruginosa = assay: Antimicrobial activity against Pseudomonas aeruginosa after 24 hr by two-fold serial dilution method
Salmonella typhi = assay: Antimicrobial activity against Salmonella enterica subsp. enterica serovar Typhi after 24 hr by two-fold serial dilution method
Escherichia coli = assay: Antimicrobial activity against Escherichia coli after 24 hr by two-fold serial dilution method
Staphylococcus aureus = assay: Antimicrobial activity against Staphylococcus aureus after 24 hr by two-fold serial dilution method

SMILES | MIC (Aspergillus flavus) [µg/mL] | MIC (Rhizopus) [µg/mL] | MIC (Aspergillus niger) [µg/mL] | MIC (Candida albicans) [µg/mL] | MIC (Pseudomonas aeruginosa) [µg/mL] | MIC (Salmonella typhi) [µg/mL] | MIC (Escherichia coli) [µg/mL] | MIC (Staphylococcus aureus) [µg/mL]
CCC1C(c2ccccc2)OC(c2ccccc2)CC12NNC(=S)N2 (centres undefined) | 50 (≈ 141 µM) | 100 (≈ 283 µM) | 25 (≈ 70.7 µM) | 100 (≈ 283 µM) | 100 (≈ 283 µM) | 25 (≈ 70.7 µM) | 100 (≈ 283 µM) | 50 (≈ 141 µM)
CC1C(c2ccccc2)OC(c2ccccc2)CC12NC(=S)NN2c1ccccc1 (centres undefined) | 12.5 (≈ 30.1 µM) | 25 (≈ 60.2 µM) | 25 (≈ 60.2 µM) | 50 (≈ 120 µM) | 25 (≈ 60.2 µM) | 25 (≈ 60.2 µM) | 12.5 (≈ 30.1 µM) | 25 (≈ 60.2 µM)
S=C1NNC2(CC(c3ccccc3)OC(c3ccccc3)C2)N1 (centres undefined) | 100 (≈ 307 µM) | 100 (≈ 307 µM) | 50 (≈ 154 µM) | 200 (≈ 615 µM) | 100 (≈ 307 µM) | 25 (≈ 76.8 µM) | 50 (≈ 154 µM) | 12.5 (≈ 38.4 µM)
C[C@@H]1[C@H](O)[C@@H](C)/C=C/C=C/C=C/C=C/C=C/C=C/C=C/[C@H](O[C@@H]2O[C@H](C)[C@@H](O)[C@H](N)[C@@H]2O)C[C@@H]2O[C@](O)(C[C@@H](O)C[C@@H](O)[C@H](O)CC[C@@H](O)C[C@@H](O)CC(=O)O[C@H]1C)C[C@H](O)[C@H]2C(=O)O [AMPHOTERICIN B] | 50 (≈ 54.1 µM) | 25 (≈ 27.1 µM) | 50 (≈ 54.1 µM) | 25 (≈ 27.1 µM) | – | – | – | –
O=C(O)c1cn(C2CC2)c2cc(N3CCNCC3)c(F)cc2c1=O [CIPROFLOXACIN] | – | – | – | – | – | 50 (≈ 151 µM) | 25 (≈ 75.4 µM) | –
CC1C(c2ccccc2)OC(c2ccccc2)CC12NNC(=S)N2 (centres undefined) | 50 (≈ 147 µM) | 25 (≈ 73.6 µM) | 50 (≈ 147 µM) | 100 (≈ 295 µM) | 50 (≈ 147 µM) | 100 (≈ 295 µM) | 100 (≈ 295 µM) | 25 (≈ 73.6 µM)
CCC1C(c2ccccc2)OC(c2ccccc2)CC12NC(=S)NN2c1ccccc1 (centres undefined) | 50 (≈ 116 µM) | 12.5 (≈ 29.1 µM) | 25 (≈ 58.2 µM) | 25 (≈ 58.2 µM) | 12.5 (≈ 29.1 µM) | 25 (≈ 58.2 µM) | 12.5 (≈ 29.1 µM) | 25 (≈ 58.2 µM)
S=C1NN(c2ccccc2)C2(CC(c3ccccc3)OC(c3ccccc3)C2)N1 (centres undefined) | 12.5 (≈ 31.1 µM) | 12.5 (≈ 31.1 µM) | 50 (≈ 125 µM) | 50 (≈ 125 µM) | 25 (≈ 62.3 µM) | 50 (≈ 125 µM) | 50 (≈ 125 µM) | 50 (≈ 125 µM)

From ChEMBL document CHEMBL3045683, “Synthesis, characterisation and antimicrobial activities of novel 7,9-diphenyl-1,2,4-triaza-8-oxa-spiro[4.5]-decan-3-thiones” (2011)
